Measured values published in PubChem BioAssay (NCI).
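Dose response: 5 concentrations. Exposure: 48 h. Format: 96-well plates. Endpoint: linear interpolation; highest concentration if not reached. The concentration for full growth arrest is given as TGI.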

Assays:
Experiment in all cases: NCI-60 cell line screen, 48 h
[1] = system: 786-0 renal
[2] = system: A498 renal
[3] = system: A549 NSCLC
[4] = system: ACHN renal
[5] = system: BT-549 breast
[6] = system: CAKI-1 renal
[7] = system: CCRF-CEM leukemia
[8] = system: COLO 205 colon
[9] = system: DU-145 prostate
[10] = system: EKVX NSCLC
[11] = system: HCC-2998 colon
[12] = system: HCT-116 colon
[13] = system: HCT-15 colon
[14] = system: HL-60(TB) leukemia
[15] = system: HOP-62 NSCLC
[16] = system: HOP-92 NSCLC
[17] = system: HS 578T breast
[18] = system: HT29 colon
[19] = system: IGROV1 ovarian
[20] = system: K-562 leukemia
[21] = system: KM12 colon
[22] = system: LOX IMVI melanoma
[23] = system: M14 melanoma
[24] = system: MALME-3M melanoma
[25] = system: MCF7 breast
[26] = system: MDA-MB-231 breast
[27] = system: MDA-MB-435
[28] = system: MDA-N
[29] = system: MOLT-4 leukemia
[30] = system: NCI-H226 lung
[31] = system: NCI-H23 lung
[32] = system: NCI-H460 lung
[33] = system: NCI-H522 lung
[34] = system: NCI/ADR-RES ovarian
[35] = system: OVCAR-3 ovarian
[36] = system: OVCAR-4 ovarian
[37] = system: OVCAR-5 ovarian
[38] = system: OVCAR-8 ovarian
[39] = system: PC-3 prostate
[40] = system: RPMI-8226 leukemia
[41] = system: RXF 393 renal
[42] = system: SF-268 CNS
[43] = system: SF-295 CNS
[44] = system: SF-539 CNS
[45] = system: SK-MEL-2 melanoma
[46] = system: SK-MEL-28 melanoma
[47] = system: SK-MEL-5 melanoma
[48] = system: SK-OV-3 ovarian
[49] = system: SN12C renal
[50] = system: SNB-19 CNS
[51] = system: SNB-75 CNS
[52] = system: SR leukemia
[53] = system: SW-620 colon
[54] = system: T-47D breast
[55] = system: TK-10 renal
[56] = system: U251 CNS
[57] = system: UACC-257 melanoma
[58] = system: UACC-62 melanoma
[59] = system: UO-31 renal

NC(N)=NC(N)=Nc1ccc(C(=O)O)cc1
TGI [1]: > 100 µM | TGI [2]: > 100 µM | TGI [3]: > 100 µM | TGI [4]: > 100 µM | TGI [5]: > 100 µM | TGI [6]: > 100 µM | TGI [7]: > 100 µM | TGI [8]: > 100 µM | TGI [9]: > 100 µM | TGI [10]: > 100 µM | TGI [11]: > 100 µM | TGI [12]: > 100 µM | TGI [13]: > 100 µM | TGI [14]: > 100 µM | TGI [15]: > 100 µM | TGI [16]: > 100 µM | TGI [17]: > 100 µM | TGI [18]: > 100 µM | TGI [19]: > 100 µM | TGI [20]: > 100 µM | TGI [21]: > 100 µM | TGI [22]: > 100 µM | TGI [23]: > 100 µM | TGI [24]: > 100 µM | TGI [25]: > 100 µM | TGI [26]: > 100 µM | TGI [27]: > 100 µM | TGI [28]: > 100 µM | TGI [29]: > 100 µM | TGI [30]: > 100 µM | TGI [31]: > 100 µM | TGI [32]: > 100 µM | TGI [33]: > 100 µM | TGI [34]: > 100 µM | TGI [35]: > 100 µM | TGI [36]: > 100 µM | TGI [37]: > 100 µM | TGI [38]: > 100 µM | TGI [39]: > 100 µM | TGI [40]: > 100 µM | TGI [41]: > 100 µM | TGI [42]: > 100 µM | TGI [43]: > 100 µM | TGI [44]: > 100 µM | TGI [45]: > 100 µM | TGI [46]: > 100 µM | TGI [47]: > 100 µM | TGI [48]: > 100 µM | TGI [49]: > 100 µM | TGI [50]: > 100 µM | TGI [51]: > 100 µM | TGI [52]: > 100 µM | TGI [53]: > 100 µM | TGI [54]: > 100 µM | TGI [55]: > 100 µM | TGI [56]: > 100 µM | TGI [57]: > 100 µM | TGI [58]: > 100 µM | TGI [59]: > 100 µM

COC(=O)CCC(=O)NC1=C(Nc2ccccc2)C(=O)c2ccccc2C1=O
TGI [1]: 25.4 µM | TGI [2]: 28.6 µM | TGI [3]: 37 µM | TGI [4]: 29.5 µM | TGI [5]: 23.4 µM | TGI [6]: 27.5 µM | TGI [7]: 42.9 µM | TGI [8]: 35.3 µM | TGI [9]: 23.2 µM | TGI [10]: 34.2 µM | TGI [11]: 37.9 µM | TGI [12]: 23 µM | TGI [13]: 27.6 µM | TGI [14]: 13.5 µM | TGI [15]: 32.1 µM | TGI [16]: 31.7 µM | TGI [17]: 32.7 µM | TGI [18]: 35.7 µM | TGI [19]: 26 µM | TGI [20]: > 57.6 µM | TGI [21]: 32.5 µM | TGI [22]: 13.9 µM | TGI [23]: 7.27 µM | TGI [24]: 5.61 µM | TGI [25]: 10.4 µM | TGI [26]: 30.1 µM | TGI [27]: 3.45 µM | TGI [28]: 3.59 µM | TGI [29]: 38.9 µM | TGI [30]: 28.6 µM | TGI [31]: 12.9 µM | TGI [32]: 31.9 µM | TGI [33]: 29.2 µM | TGI [34]: 39.9 µM | TGI [35]: 10.4 µM | TGI [36]: 22.9 µM | TGI [37]: 19.7 µM | TGI [38]: 47.4 µM | TGI [39]: 65.2 µM | TGI [40]: 52.3 µM | TGI [41]: 21.4 µM | TGI [42]: 51.5 µM | TGI [43]: 29.9 µM | TGI [44]: 29.1 µM | TGI [45]: 16.4 µM | TGI [46]: 17.7 µM | TGI [47]: 3.3 µM | TGI [48]: 30.9 µM | TGI [49]: 28.9 µM | TGI [50]: 31.4 µM | TGI [51]: 33.2 µM | TGI [52]: 56.7 µM | TGI [53]: 30.6 µM | TGI [54]: 32.8 µM | TGI [55]: 41.6 µM | TGI [56]: 24.2 µM | TGI [57]: 9.76 µM | TGI [58]: 7.55 µM | TGI [59]: 32.2 µM
